Data reported in patent US20080118591A1, “Bactericidal Formulations” (priority 2004, published 2008).

What was measured:
[1] = test system: E. coli; assay: Rapid bactericidal activity of liquid wash formulations; format: cell-based; settings: in formulation IV, 30 s
Method: (§1) A control of each formulation is left un-perfumed. The rapid bactericidal activity of these formulations is then tested as follows: • The products are diluted 1:1 in hard water as defined in the European standard EN 1276. This mimics conditions of use on wet hands or wet surfaces in commonly used water. • 500 μl of the product is mixed with 25 μl of a bacterial inoculum containing 2×10^8 cfu/ml (colony forming units). • The mixture is incubated for 30 seconds at 37° C. • 20 μl of the mixture is removed and added to 180 μl neutralising solution (containing 3 g lecithin, 30 g Tween® 80, 5 g sodium thiosulfate, 1 g histidine, 30 g saponin, 8.5 g sodium chloride, 1 g tryptone and 1000 ml water). • The mixture with neutraliser is incubated for 1 min • Serial dilutions of the mixture with neutralising solution are made, and aliquots of these are added to Petri-dishes and embedded in tryptic soy agar containing 0.5% Tween® 80 to inactivate any residual antibacterial compounds. • Bacterial numbers are counted after 24 h incubation at 37° C. and compared to control samples. • Reduction in bacterial viability is determined as described in example 1
Formulations are tested in a dilution of 1:1 and with 30 seconds contact time to bacteria (E. coli). […]

[2] = test system: S. aureus; assay: as above; format: cell-based; settings: in formulation IV, 30 s
Method: as §1, with “The above formulations are supplemented with 0.9% (w/v) of the perfume composition A of example 2. A” for “A”
Formulation IV of example 3 is supplemented with different concentrations of phenolic biocides and different concentrations of the perfume composition A of example 2. The reduction in viability of various test organisms is determined at different dilutions of the formulation (1:1 or 1:3 to simulate conditions of use) after 30 seconds contact time.

Oc1cc(Cl)ccc1Oc1ccc(Cl)cc1Cl [Triclosan, 2,4,4′-trichloro-2′-hydroxy-diphenylether]
rapid bactericidal effect, E. coli 1:1 ([1]; Biocide 0.2%, Perfume 0%): 1
rapid bactericidal effect, E. coli 1:3 ([1]; Biocide 0.2%, Perfume 0%): 1
rapid bactericidal effect, E. coli 1:1 ([1]; Biocide 0.2%, Perfume 0.45%): >250
rapid bactericidal effect, E. coli 1:3 ([1]; Biocide 0.2%, Perfume 0.45%): 2
rapid bactericidal effect, S. aureus conc. ([2]; Biocide 0.2%, Perfume 0%): 12
rapid bactericidal effect, S. aureus conc. ([2]; Biocide 0.2%, Perfume 0.45%): 31

Oc1ccc(Cl)cc1Cc1ccccc1 [2-benzyl-4-chlorphenol]
rapid bactericidal effect, E. coli 1:1 ([1]; Biocide 0.2%, Perfume 0%): 1
rapid bactericidal effect, E. coli 1:3 ([1]; Biocide 0.2%, Perfume 0%): 1
rapid bactericidal effect, E. coli 1:1 ([1]; Biocide 0.2%, Perfume 0.45%): >250
rapid bactericidal effect, E. coli 1:3 ([1]; Biocide 0.2%, Perfume 0.45%): 2
rapid bactericidal effect, E. coli 1:1 ([1]; Biocide 0.4%, Perfume 0%): 18
rapid bactericidal effect, E. coli 1:3 ([1]; Biocide 0.4%, Perfume 0%): 1
rapid bactericidal effect, E. coli 1:1 ([1]; Biocide 0.4%, Perfume 0.45%): >250
rapid bactericidal effect, E. coli 1:3 ([1]; Biocide 0.4%, Perfume 0.45%): 4
rapid bactericidal effect, S. aureus conc. ([2]; Biocide 0.2%, Perfume 0%): 1
rapid bactericidal effect, S. aureus conc. ([2]; Biocide 0.2%, Perfume 0.45%): 1
rapid bactericidal effect, S. aureus conc. ([2]; Biocide 0.4%, Perfume 0%): 3
rapid bactericidal effect, S. aureus conc. ([2]; Biocide 0.4%, Perfume 0.45%): 21
